Laboratory results from patent publication US9682995B2, “Amino-substituted isothiazoles” (BAYER PHARMA AKTIENGESELLSCHAFT, priority 2013, dated 2017).

How the values were obtained:
Experiment in all cases: Kinase Profiling (KINOMEscan)
Format in all cases: binding
[1] = target: 456 kinases (of these 395 non-mutant kinases) (Homo sapiens, UniProt Q9P1W9); conditions: PIM2; 10 μM
[2] = target: 456 kinases (of these 395 non-mutant kinases) (Homo sapiens, UniProt Q13043); conditions: MST1; 10 μM
[3] = target: 456 kinases (of these 395 non-mutant kinases) (Homo sapiens, UniProt Q02750); conditions: MEK1; 10 μM
[4] = target: 456 kinases (of these 395 non-mutant kinases) (Homo sapiens, UniProt P00533, G719S); conditions: EGFR(G719S); 10 μM
[5] = target: 456 kinases (of these 395 non-mutant kinases) (Homo sapiens, UniProt P17948); conditions: FLT1; 10 μM
[6] = target: 456 kinases (of these 395 non-mutant kinases) (Homo sapiens, UniProt Q8TBX8); conditions: PIP5K2C; 10 μM
[7] = target: 456 kinases (of these 395 non-mutant kinases) (Homo sapiens, UniProt Q9UPE1); conditions: SRPK3; 10 μM
[8] = target: 456 kinases (of these 395 non-mutant kinases) (Homo sapiens, UniProt Q8TDC3); conditions: BRSK1; 10 μM
[9] = target: 456 kinases (of these 395 non-mutant kinases) (Homo sapiens, UniProt P00533); conditions: EGFR; 10 μM
[10] = target: 456 kinases (of these 395 non-mutant kinases) (Homo sapiens, UniProt Q9HAZ1); conditions: CLK4; 10 μM
[11] = target: 456 kinases (of these 395 non-mutant kinases) (Homo sapiens, UniProt P49840); conditions: GSK3A; 10 μM
[12] = target: 456 kinases (of these 395 non-mutant kinases) (Homo sapiens, UniProt P42680); conditions: TEC; 10 μM
[13] = target: 456 kinases (of these 395 non-mutant kinases) (Homo sapiens, UniProt Q9P2K8, S808G); conditions: GCN2(Kin.Dom.2,S808G); 10 μM
[14] = target: 456 kinases (of these 395 non-mutant kinases) (Homo sapiens, UniProt P54756); conditions: EPHA5; 10 μM
[15] = target: 456 kinases (of these 395 non-mutant kinases) (Homo sapiens, UniProt Q08881); conditions: ITK; 10 μM
[16] = target: 456 kinases (of these 395 non-mutant kinases) (Homo sapiens, UniProt Q14680); conditions: MELK; 10 μM
[17] = target: 456 kinases (of these 395 non-mutant kinases) (Homo sapiens, UniProt Q9UKE5); conditions: TNIK; 10 μM
[18] = target: 456 kinases (of these 395 non-mutant kinases) (Homo sapiens, UniProt P52333); conditions: JAK3(JH1domain-catalytic); 10 μM
[19] = target: 456 kinases (of these 395 non-mutant kinases) (Homo sapiens, UniProt Q56UN5); conditions: YSK4; 10 μM
[20] = target: 456 kinases (of these 395 non-mutant kinases) (Homo sapiens, UniProt O95747); conditions: OSR1; 10 μM
[21] = target: 456 kinases (of these 395 non-mutant kinases) (Homo sapiens, UniProt P10721, T670I/V559D); conditions: KIT(V559D,T670I); 10 μM
[22] = target: 456 kinases (of these 395 non-mutant kinases) (Homo sapiens, UniProt Q9UHD2); conditions: TBK1; 10 μM
[23] = target: 456 kinases (of these 395 non-mutant kinases) (Homo sapiens, UniProt Q9NQU5); conditions: PAK6; 10 μM
[24] = target: 456 kinases (of these 395 non-mutant kinases) (Homo sapiens, UniProt Q13237); conditions: PRKG2; 10 μM
[25] = target: 456 kinases (of these 395 non-mutant kinases) (Homo sapiens, UniProt P10721, A829P); conditions: KIT(A829P); 10 μM
[26] = target: 456 kinases (of these 395 non-mutant kinases) (Homo sapiens, UniProt Q9NRM7); conditions: LATS2; 10 μM
[27] = target: 456 kinases (of these 395 non-mutant kinases) (Homo sapiens, UniProt Q9H422); conditions: HIPK3; 10 μM
[28] = target: 456 kinases (of these 395 non-mutant kinases) (Homo sapiens, UniProt P10721, L576P); conditions: KIT(L576P); 10 μM
[29] = target: 456 kinases (of these 395 non-mutant kinases) (Homo sapiens, UniProt Q16539); conditions: p38-alpha; 10 μM
[30] = target: 456 kinases (of these 395 non-mutant kinases) (Homo sapiens, UniProt O60674); conditions: JAK2(JH1domain-catalytic); 10 μM
[31] = target: 456 kinases (of these 395 non-mutant kinases) (Homo sapiens, UniProt Q9HC98); conditions: NEK6; 10 μM
[32] = target: 456 kinases (of these 395 non-mutant kinases) (Homo sapiens, UniProt P07949, V804M); conditions: RET(V804M); 10 μM

Sequence of 456 kinases (of these 395 non-mutant kinases) (Homo sapiens, UniProt P54756) (P54756 25-1037 limits assumed, change not shown): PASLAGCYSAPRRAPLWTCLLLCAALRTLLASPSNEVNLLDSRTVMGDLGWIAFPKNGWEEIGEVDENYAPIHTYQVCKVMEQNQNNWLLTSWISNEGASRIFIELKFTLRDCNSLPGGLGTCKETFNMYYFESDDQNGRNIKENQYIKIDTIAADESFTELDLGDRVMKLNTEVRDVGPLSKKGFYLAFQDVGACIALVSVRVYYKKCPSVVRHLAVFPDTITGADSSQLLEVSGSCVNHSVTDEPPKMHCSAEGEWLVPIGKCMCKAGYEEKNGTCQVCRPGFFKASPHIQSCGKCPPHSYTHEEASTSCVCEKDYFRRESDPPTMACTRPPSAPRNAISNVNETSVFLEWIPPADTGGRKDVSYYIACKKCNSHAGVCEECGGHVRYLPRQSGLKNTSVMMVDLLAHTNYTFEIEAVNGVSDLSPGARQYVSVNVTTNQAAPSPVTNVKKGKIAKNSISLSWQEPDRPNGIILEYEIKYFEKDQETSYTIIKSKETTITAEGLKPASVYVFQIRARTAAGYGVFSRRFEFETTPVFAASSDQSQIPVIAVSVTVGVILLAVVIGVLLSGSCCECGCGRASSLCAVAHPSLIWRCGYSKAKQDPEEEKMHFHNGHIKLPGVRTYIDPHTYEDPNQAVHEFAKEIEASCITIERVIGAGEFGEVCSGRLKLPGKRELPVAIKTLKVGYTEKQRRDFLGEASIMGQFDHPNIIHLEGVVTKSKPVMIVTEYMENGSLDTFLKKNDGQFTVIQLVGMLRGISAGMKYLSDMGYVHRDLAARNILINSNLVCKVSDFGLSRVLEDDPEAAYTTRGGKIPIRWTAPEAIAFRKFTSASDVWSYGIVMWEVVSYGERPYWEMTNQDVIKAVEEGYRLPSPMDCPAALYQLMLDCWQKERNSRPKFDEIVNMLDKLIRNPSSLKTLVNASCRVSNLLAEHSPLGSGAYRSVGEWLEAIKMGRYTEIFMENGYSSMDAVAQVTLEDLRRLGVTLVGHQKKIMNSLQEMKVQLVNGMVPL
Sequence of 456 kinases (of these 395 non-mutant kinases) (Homo sapiens, UniProt Q16539) (Q16539 2-360 limits assumed, change not shown): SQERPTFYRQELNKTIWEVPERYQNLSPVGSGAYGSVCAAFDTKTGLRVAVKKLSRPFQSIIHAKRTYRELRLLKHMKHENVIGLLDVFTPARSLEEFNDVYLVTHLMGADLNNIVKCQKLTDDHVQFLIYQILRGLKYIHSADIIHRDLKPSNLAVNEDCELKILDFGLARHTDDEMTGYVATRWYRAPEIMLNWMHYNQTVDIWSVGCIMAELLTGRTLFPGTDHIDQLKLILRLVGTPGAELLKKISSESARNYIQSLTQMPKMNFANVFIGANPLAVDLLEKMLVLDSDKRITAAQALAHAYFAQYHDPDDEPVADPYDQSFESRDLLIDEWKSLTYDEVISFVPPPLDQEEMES
Sequence of 456 kinases (of these 395 non-mutant kinases) (Homo sapiens, UniProt P49840) (P49840 2-483 limits assumed, change not shown): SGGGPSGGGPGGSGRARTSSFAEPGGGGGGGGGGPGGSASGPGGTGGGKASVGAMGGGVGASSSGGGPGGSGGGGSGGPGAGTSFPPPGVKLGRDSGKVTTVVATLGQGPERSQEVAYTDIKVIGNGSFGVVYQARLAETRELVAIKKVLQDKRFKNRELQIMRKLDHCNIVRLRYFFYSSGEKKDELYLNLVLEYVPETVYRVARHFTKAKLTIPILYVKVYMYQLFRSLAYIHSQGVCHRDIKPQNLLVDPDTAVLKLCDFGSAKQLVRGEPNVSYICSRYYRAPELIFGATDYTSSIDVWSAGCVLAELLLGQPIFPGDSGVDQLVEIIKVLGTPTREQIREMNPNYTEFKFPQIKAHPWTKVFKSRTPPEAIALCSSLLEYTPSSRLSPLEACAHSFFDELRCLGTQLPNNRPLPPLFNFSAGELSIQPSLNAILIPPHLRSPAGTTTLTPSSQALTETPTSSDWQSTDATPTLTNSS
Sequence of 456 kinases (of these 395 non-mutant kinases) (Homo sapiens, UniProt Q13237) (Q13237 2-762 limits assumed, stated change not applied): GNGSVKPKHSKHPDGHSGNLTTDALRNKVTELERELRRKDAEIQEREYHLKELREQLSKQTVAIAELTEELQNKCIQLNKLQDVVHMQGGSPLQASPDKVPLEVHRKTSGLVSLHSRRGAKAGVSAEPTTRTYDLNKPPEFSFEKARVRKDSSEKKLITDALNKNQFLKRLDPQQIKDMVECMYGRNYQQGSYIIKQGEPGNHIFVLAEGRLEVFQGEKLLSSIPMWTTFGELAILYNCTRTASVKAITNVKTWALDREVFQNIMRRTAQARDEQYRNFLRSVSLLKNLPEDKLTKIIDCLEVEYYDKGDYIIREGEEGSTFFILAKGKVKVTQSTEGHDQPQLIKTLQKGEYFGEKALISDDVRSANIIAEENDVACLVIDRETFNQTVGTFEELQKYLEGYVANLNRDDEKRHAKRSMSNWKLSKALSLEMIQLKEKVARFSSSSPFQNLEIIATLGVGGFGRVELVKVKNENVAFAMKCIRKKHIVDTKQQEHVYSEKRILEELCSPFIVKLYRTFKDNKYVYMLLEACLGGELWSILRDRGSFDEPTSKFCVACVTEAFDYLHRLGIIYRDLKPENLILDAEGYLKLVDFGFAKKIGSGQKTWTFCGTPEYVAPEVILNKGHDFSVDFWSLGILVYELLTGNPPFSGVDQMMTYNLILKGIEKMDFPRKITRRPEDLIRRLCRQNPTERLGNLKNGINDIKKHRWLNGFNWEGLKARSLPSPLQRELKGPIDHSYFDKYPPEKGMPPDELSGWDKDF
Sequence of 456 kinases (of these 395 non-mutant kinases) (Homo sapiens, UniProt Q8TBX8) (Q8TBX8 2-421 limits assumed, change not shown): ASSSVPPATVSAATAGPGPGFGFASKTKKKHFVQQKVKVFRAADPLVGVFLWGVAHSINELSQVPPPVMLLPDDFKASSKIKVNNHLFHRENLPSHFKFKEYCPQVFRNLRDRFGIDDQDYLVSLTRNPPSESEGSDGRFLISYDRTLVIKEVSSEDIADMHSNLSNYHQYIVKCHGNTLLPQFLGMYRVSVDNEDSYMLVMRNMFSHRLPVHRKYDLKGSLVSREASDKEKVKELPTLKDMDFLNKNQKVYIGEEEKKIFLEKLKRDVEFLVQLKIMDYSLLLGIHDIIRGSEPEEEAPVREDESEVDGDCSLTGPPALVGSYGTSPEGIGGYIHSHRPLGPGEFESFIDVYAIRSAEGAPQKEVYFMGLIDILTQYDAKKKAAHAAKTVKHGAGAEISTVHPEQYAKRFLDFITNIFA
Sequence of 456 kinases (of these 395 non-mutant kinases) (Homo sapiens, UniProt O95747) (O95747 2-527 limits assumed, stated change not applied): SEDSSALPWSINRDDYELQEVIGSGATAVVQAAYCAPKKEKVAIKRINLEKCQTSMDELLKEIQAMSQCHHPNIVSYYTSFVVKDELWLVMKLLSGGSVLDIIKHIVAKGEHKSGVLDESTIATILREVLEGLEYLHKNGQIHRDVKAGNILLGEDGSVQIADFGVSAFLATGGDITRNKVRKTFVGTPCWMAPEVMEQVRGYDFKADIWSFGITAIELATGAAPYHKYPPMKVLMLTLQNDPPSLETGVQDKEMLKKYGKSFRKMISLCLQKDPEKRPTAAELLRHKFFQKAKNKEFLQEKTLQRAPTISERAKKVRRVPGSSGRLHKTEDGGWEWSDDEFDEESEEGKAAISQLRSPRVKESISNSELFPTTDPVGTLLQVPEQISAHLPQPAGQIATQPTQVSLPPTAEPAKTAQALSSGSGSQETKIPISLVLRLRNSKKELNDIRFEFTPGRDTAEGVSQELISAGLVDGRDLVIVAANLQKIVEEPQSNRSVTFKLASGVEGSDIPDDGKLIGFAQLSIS
Sequence of 456 kinases (of these 395 non-mutant kinases) (Homo sapiens, UniProt P10721, T670I/V559D) (P10721 26-976 V559D/T670I limits assumed): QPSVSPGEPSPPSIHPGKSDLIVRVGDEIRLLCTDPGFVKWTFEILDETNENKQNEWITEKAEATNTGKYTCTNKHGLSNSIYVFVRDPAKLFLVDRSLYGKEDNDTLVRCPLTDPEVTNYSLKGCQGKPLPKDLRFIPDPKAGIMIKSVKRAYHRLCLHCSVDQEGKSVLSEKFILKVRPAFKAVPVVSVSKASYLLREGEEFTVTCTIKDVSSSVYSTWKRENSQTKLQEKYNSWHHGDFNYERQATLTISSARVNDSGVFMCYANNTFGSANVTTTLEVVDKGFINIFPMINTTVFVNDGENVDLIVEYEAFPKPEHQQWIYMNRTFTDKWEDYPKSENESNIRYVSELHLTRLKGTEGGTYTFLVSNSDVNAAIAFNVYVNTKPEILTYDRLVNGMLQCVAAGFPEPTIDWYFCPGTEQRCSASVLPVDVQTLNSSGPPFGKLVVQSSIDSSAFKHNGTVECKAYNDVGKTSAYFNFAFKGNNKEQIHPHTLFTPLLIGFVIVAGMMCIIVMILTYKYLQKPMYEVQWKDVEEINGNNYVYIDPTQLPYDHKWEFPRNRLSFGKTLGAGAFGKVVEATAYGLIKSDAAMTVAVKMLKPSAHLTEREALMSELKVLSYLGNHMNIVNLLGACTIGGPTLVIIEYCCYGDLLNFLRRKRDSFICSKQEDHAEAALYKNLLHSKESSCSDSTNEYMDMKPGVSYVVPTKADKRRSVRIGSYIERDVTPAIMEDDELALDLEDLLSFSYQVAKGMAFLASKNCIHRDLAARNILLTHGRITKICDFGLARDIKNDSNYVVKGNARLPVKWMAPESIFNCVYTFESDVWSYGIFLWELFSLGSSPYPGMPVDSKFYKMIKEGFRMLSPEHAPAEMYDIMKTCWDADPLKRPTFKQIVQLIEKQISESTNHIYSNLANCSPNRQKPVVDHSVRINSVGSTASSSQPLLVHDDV

CCc1ccccc1NC(=O)c1c(C)nsc1Nc1cnc2cc(F)ccc2n1 [Example 20, N-(2-Ethylphenyl)-5-[(6-fluoroquinoxalin-2-yl)amino]-3-methyl-1,2-thiazole-4-carboxamide]
% Ctrl @ 10 μM [1]: 100 % Ctrl
% Ctrl @ 10 μM [2]: 79 % Ctrl
% Ctrl @ 10 μM [3]: 97 % Ctrl
% Ctrl @ 10 μM [4]: 97 % Ctrl
% Ctrl @ 10 μM [5]: 74 % Ctrl
% Ctrl @ 10 μM [6]: 100 % Ctrl
% Ctrl @ 10 μM [7]: 87 % Ctrl
% Ctrl @ 10 μM [8]: 90 % Ctrl
% Ctrl @ 10 μM [9]: 98 % Ctrl
% Ctrl @ 10 μM [10]: 100 % Ctrl
% Ctrl @ 10 μM [11]: 68 % Ctrl
% Ctrl @ 10 μM [12]: 100 % Ctrl
% Ctrl @ 10 μM [13]: 100 % Ctrl
% Ctrl @ 10 μM [14]: 99 % Ctrl
% Ctrl @ 10 μM [15]: 100 % Ctrl
% Ctrl @ 10 μM [16]: 100 % Ctrl
% Ctrl @ 10 μM [17]: 100 % Ctrl
% Ctrl @ 10 μM [18]: 82 % Ctrl
% Ctrl @ 10 μM [19]: 100 % Ctrl
% Ctrl @ 10 μM [20]: 97 % Ctrl
% Ctrl @ 10 μM [21]: 100 % Ctrl
% Ctrl @ 10 μM [22]: 91 % Ctrl
% Ctrl @ 10 μM [23]: 100 % Ctrl
% Ctrl @ 10 μM [24]: 100 % Ctrl
% Ctrl @ 10 μM [25]: 94 % Ctrl
% Ctrl @ 10 μM [26]: 94 % Ctrl
% Ctrl @ 10 μM [27]: 96 % Ctrl
% Ctrl @ 10 μM [28]: 100 % Ctrl
% Ctrl @ 10 μM [29]: 90 % Ctrl
% Ctrl @ 10 μM [30]: 100 % Ctrl
% Ctrl @ 10 μM [31]: 100 % Ctrl
% Ctrl @ 10 μM [32]: 100 % Ctrl
